Source: BindingDB's records for PubMed 8102785 (University of Pennsylvania, 1993)
Where a SMILES comes first, the peptide text is derived from it. [ ]: non-standard residue; d: D form.

Each compound was assayed against Somatostatin receptor type 4 (Rattus norvegicus, UniProt P30937).
Chain of Somatostatin receptor type 4 (P30937 whole entry): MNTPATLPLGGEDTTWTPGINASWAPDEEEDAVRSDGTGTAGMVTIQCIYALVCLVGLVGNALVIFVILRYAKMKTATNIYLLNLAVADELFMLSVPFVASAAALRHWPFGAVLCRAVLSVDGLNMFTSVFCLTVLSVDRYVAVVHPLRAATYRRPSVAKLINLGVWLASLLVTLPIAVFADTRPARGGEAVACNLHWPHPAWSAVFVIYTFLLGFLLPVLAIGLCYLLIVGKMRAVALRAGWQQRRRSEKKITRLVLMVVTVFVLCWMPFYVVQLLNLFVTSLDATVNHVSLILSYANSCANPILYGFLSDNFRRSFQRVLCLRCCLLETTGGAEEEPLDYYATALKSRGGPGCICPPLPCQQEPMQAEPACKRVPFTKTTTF

| Ki [nM] | Compound |
| --- | --- |
| 0.08 | C[C@@H](O)[C@H](NC(=O)[C@@H]1CSSC[C@H](NC(=O)[C@H](N)Cc2ccc3ccccc3c2)C(=O)N[C@@H](Cc2ccc(O)cc2)C(=O)N[C@H](Cc2c[nH]c3ccccc23)C(=O)N[C@@H](CCCCN)C(=O)N[C@@H]([C@@H](C)O)C(=O)N1)C(N)=O [D-Nal-c[Cys-Tyr-D-Trp-Lys-Thr-Cys]-Thr-NH2] |
| 1.2 | CC(C)[C@H](NC(=O)[C@H](CCCCN)NC(=O)[C@@H](Cc1c[nH]c2ccccc12)NC(=O)[C@H](Cc1ccc(O)cc1)NC(=O)[C@H](Cc1ccccc1)NC(=O)[C@@H](N)Cc1ccccc1)C(=O)N[C@@H](Cc1ccccc1)C(=O)N[C@H](C(N)=O)[C@@H](C)O [BIM-23058] (H-FFY[dW]KVFT-NH2) |

| Compound | Ki [nM] |
| --- | --- |
| CC(C)[C@@H]1NC(=O)[C@H](CCCCN)NC(=O)[C@@H](Cc2c[nH]c3ccccc23)NC(=O)[C@H](Cc2ccc(O)cc2)NC(=O)[C@@H](NC(=O)[C@H](N)Cc2ccc3ccccc3c2)CSSC[C@@H](C(=O)N[C@H](C(N)=O)[C@@H](C)O)NC1=O [3-(2-Naphtyl)-D-Ala-L-Cys(1)-L-Tyr-D-Trp-L-Lys-L-Val-L-Cys(1)-L-Thr-NH2] | 0.1 |
